Experiments:
CD8+ T cells = experiment: Exogenous autologous healthy donor restimulation assay, TNFα and IFNγ production by CD8+ T cells; assay type: cell-based, human; set-up: Frequency (TNFα+ IFNγ+ CD8 T cells): unit not given here; details: for Fold change (CD8+) vs. DMSO: maximum CD8+ T-cell response (TNFα and IFNγ); for Fold change (CD8+) vs. DMSO / Frequency (TNFα+ IFNγ+ CD8 T cells): donor independent, peptide pool 10 μg/mL, healthy donors; for Frequency (TNFα+ IFNγ+ CD8 T cells): maximum CD8+ T-cell response; for Immunogenic (yes/no): positive if CD8+ and/or CD4+ double positive TNFα/IFNγ frequency >=3-fold over DMSO and at least 0.01%
Experimental: (§1) Immunogenicity responses were measured by estimating TNFα IFNγ double positive cells in the CD4+ and/or CD8+ T-cell populations. A response is considered positive if TNFα IFNγ double positive fraction was greater than or equal to three-fold over unstimulated cells (DMSO negative control) with a minimum frequency >=0.01%. […]
(§2) Overlapping 15-mer peptides were designed to span each indicated neoantigen. Their ability to activate T cells was assessed using known methods, such as the assay defnied as exogenous autologous normal donor restimulation assay. The peptides were used as pools using TNFα and IFNγ production by CD8^+ and CD4^+ T cells as a readout. Maximum frequency of CD8^+TNFα^+IFNγ^+ and CD4^+TNFα^+IFNγ^+ T cells and maximum fold change over background for each pool of peptides were analyzed, which were calculated as the highest frequency of CD8^+ TNFα^+IFNγ^+ and CD4^+ TNFα^+IFNγ^+ T cells and resulting fold change across the normal donors evaluated for the peptide.
(§3) CD1c+Dendritic Cells (CD1c+DC) isolated from human healthy PBMCs were thawed using media (IMDM (Gibco) supplemented with glutamine, HEPES, 5% human serum (Sigma), and 1× Pen-Strep). DC cells were resuspended in media supplemented with IL-4 (Peprotech, 20 ng/mL) and GM-CSF (Gibco, 20 ng/mL), plated in 6 well microplates, and rested overnight at 37° C. and 5% CO2 incubator. The following day, DC cells were counted and plated in a 96 well round bottom microplate at a concentration of 30,000 viable cells per well. Lyophilized neoantigen peptide pools (15-mer peptides with 8-mer overlapping peptide sequences) were solubilized in 100% DMSO with a stock concentration of 20 mg/mL Neoantigen peptides pools were added to DCs for a final concentration of 10 μg/mL and rested for 2 hours at 37° C. and 5% CO2 incubator. CEF Peptide Pool “Plus” (Cellular Technologies, Ltd.) was utilized as a positive control (each viral peptide at a final concentration of 4 ug/ml) and DMSO at the same final concentration (0.05%) as the experimental peptides was utilized as a negative control. After 2 hours, DC cells were irradiated with 50 gray of ionizing radiation. Autologous CD3+ Pan-T cells isolated from human normal PBMCs were thawed using media. Following irradiation, autologous Pan-T cells were added to the irradiated DCs at 300,000 viable cells per well. Human IL-15 (Peprotech) was added to all wells at final concentration of 10 ng/ml. Plates were incubated at 37° C. and 5% CO2 incubator for a total of 12 days. Media was refreshed every 2-3 days with IL-15 (R&D System, 10 ng/mL final concentration) and IL-2 (R&D systems, 10 IU/mL final concentration).
(§4) On Day 11, cells were re-stimulated with identical experimental peptide pools or controls, at same concentration as peptide stimulation on Day 1. Protein Inhibitor Cocktail (eBioscience) was added to every well and plate was incubated overnight for 14-16 hours at 37° C. and 5% CO2 incubator. On Day 12, cells were stained for surface and intracellular flow cytometry analysis. The cells were washed with PBS and stained with Live/Dead Fixable Aqua Dead Cell stain (Thermo-Fisher). Following the live/dead stain, cells were blocked using Biotin-Free Fc Receptor Blocker (Accurate Chemical & Scientific Corp). Extracellular cellular flow panel (1 μL/antibody per well in 50 μL) consisted of CD3 PerCP-Cy5.5 (Biolegend), CD4 BV421 (Biolegend), and CD8 APC-Cy7 (Biolegend). After extracellular staining, cells were fixed and permeabilized using Foxp3/Transcription Factor Staining Buffer Set (eBioscience) and stained for intracellular proteins (1:50 dilution) using TNFα FITC (R&D Systems) and IFNγ BV785 (Biolegend). Cells were washed and resuspended in stain buffer, analyzed, and recorded in a BD Celesta flow cytometer.
(§5) Flow cytometry analysis was conducted on FlowJo v10.6 software. Cells were gated on live, singlet, CD3+, CD4+ and CD8+ T cells. The CD8+ and CD4+ T cells were analyzed for TNFα and IFNγ expression. […]

CD4+ T cells = experiment: Exogenous autologous healthy donor restimulation assay, TNFα and IFNγ production by CD4+ T cells; assay type: cell-based, human; set-up: Frequency (TNFα+ IFNγ+ CD4 T cells): unit not given here; details: donor independent, peptide pool 10 μg/mL, healthy donors; for Fold change (CD4+) vs. DMSO: maximum CD4+ T-cell response (TNFα and IFNγ); for Frequency (TNFα+ IFNγ+ CD4 T cells): maximum CD4+ T-cell response
Experimental: as §1, §2, §3, §4, §5

Sequence: WTRPEKQELNSSCCSLIL [AS120, alternative splicing, NCAM1]
- Fold change (CD8+) vs. DMSO (CD8+ T cells): 13.03
- Frequency (TNFα+ IFNγ+ CD8 T cells) (CD8+ T cells): 0.24
- Immunogenic (yes/no) (CD8+ T cells): Yes
- Fold change (CD4+) vs. DMSO (CD4+ T cells): 3.71
- Frequency (TNFα+ IFNγ+ CD4 T cells) (CD4+ T cells): 0.018

Sequence: VYYLYKNVAYKGSDID [AS86, alternative splicing, ATP10B]
- Fold change (CD8+) vs. DMSO (CD8+ T cells): 2.7
- Frequency (TNFα+ IFNγ+ CD8 T cells) (CD8+ T cells): 0.018
- Immunogenic (yes/no) (CD8+ T cells): Yes
- Fold change (CD4+) vs. DMSO (CD4+ T cells): 12.54
- Frequency (TNFα+ IFNγ+ CD4 T cells) (CD4+ T cells): 0.019

Sequence: QIIYDENRTMQIFVKT [FUS28, gene fusion NCOR2-> UBC]
- Fold change (CD8+) vs. DMSO (CD8+ T cells): 247.49
- Frequency (TNFα+ IFNγ+ CD8 T cells) (CD8+ T cells): 0.37
- Immunogenic (yes/no) (CD8+ T cells): Yes
- Fold change (CD4+) vs. DMSO (CD4+ T cells): 1.13
- Frequency (TNFα+ IFNγ+ CD4 T cells) (CD4+ T cells): 0.009

Sequence: ILAQKKKDELSS [AS93, alternative splicing, TJP1]
- Fold change (CD8+) vs. DMSO (CD8+ T cells): 1.44
- Frequency (TNFα+ IFNγ+ CD8 T cells) (CD8+ T cells): 0.014
- Immunogenic (yes/no) (CD8+ T cells): Yes
- Fold change (CD4+) vs. DMSO (CD4+ T cells): 9.9
- Frequency (TNFα+ IFNγ+ CD4 T cells) (CD4+ T cells): 0.015

Sequence: PKVFPKNQVISLIPKAQEDPEHT [AS127, alternative splicing, ST3GAL6]
- Fold change (CD8+) vs. DMSO (CD8+ T cells): 1.44
- Frequency (TNFα+ IFNγ+ CD8 T cells) (CD8+ T cells): 0.08
- Immunogenic (yes/no) (CD8+ T cells): Yes
- Fold change (CD4+) vs. DMSO (CD4+ T cells): 7.179
- Frequency (TNFα+ IFNγ+ CD4 T cells) (CD4+ T cells): 0.14

Sequence: GEVKWSVGSRTSLLL [FUS38, gene fusion CD79B-> GH1]
- Fold change (CD8+) vs. DMSO (CD8+ T cells): 23.41
- Frequency (TNFα+ IFNγ+ CD8 T cells) (CD8+ T cells): 0.18
- Immunogenic (yes/no) (CD8+ T cells): Yes
- Fold change (CD4+) vs. DMSO (CD4+ T cells): 4.06
- Frequency (TNFα+ IFNγ+ CD4 T cells) (CD4+ T cells): 0.007

Sequence: GGPPFVGPLRGPRAQPSLSGLCGRRTGSRDTIKIPGQT [FUS42, gene fusion RBM42-> ETV2]
- Fold change (CD8+) vs. DMSO (CD8+ T cells): 14.72
- Frequency (TNFα+ IFNγ+ CD8 T cells) (CD8+ T cells): 0.027
- Immunogenic (yes/no) (CD8+ T cells): Yes
- Fold change (CD4+) vs. DMSO (CD4+ T cells): 9.54
- Frequency (TNFα+ IFNγ+ CD4 T cells) (CD4+ T cells): 0.11

Sequence: DVAVICSGVPVADVS [FUS5, gene fusion CD5L-> FCRL1]
- Fold change (CD8+) vs. DMSO (CD8+ T cells): 4.59
- Frequency (TNFα+ IFNγ+ CD8 T cells) (CD8+ T cells): 0.079
- Immunogenic (yes/no) (CD8+ T cells): Yes
- Fold change (CD4+) vs. DMSO (CD4+ T cells): 6.97
- Frequency (TNFα+ IFNγ+ CD4 T cells) (CD4+ T cells): 0.021

Sequence: SGLLMNTLTVLILYFLY [FUS9, gene fusion EAF2-> SLC15A2]
- Fold change (CD8+) vs. DMSO (CD8+ T cells): 5.53
- Frequency (TNFα+ IFNγ+ CD8 T cells) (CD8+ T cells): 0.13
- Immunogenic (yes/no) (CD8+ T cells): Yes
- Fold change (CD4+) vs. DMSO (CD4+ T cells): 3.08
- Frequency (TNFα+ IFNγ+ CD4 T cells) (CD4+ T cells): 0.031

Sequence: RHQENVHTVLVHGKVKGLFYI [AS125, alternative splicing, PRDM5]
- Fold change (CD8+) vs. DMSO (CD8+ T cells): 28.62
- Frequency (TNFα+ IFNγ+ CD8 T cells) (CD8+ T cells): 0.78
- Immunogenic (yes/no) (CD8+ T cells): Yes
- Fold change (CD4+) vs. DMSO (CD4+ T cells): 6.57
- Frequency (TNFα+ IFNγ+ CD4 T cells) (CD4+ T cells): 0.023

Sequence: VAPSQSRQEECWRHKMSW [AS42, alternative splicing, LARP1B]
- Fold change (CD8+) vs. DMSO (CD8+ T cells): 40
- Frequency (TNFα+ IFNγ+ CD8 T cells) (CD8+ T cells): 0.076
- Immunogenic (yes/no) (CD8+ T cells): Yes
- Fold change (CD4+) vs. DMSO (CD4+ T cells): 3.83
- Frequency (TNFα+ IFNγ+ CD4 T cells) (CD4+ T cells): 0.025

Sequence: QILQQALKIAFLKVVVPLKLHPYSFCH [AS132, alternative splicing, USP25]
- Fold change (CD8+) vs. DMSO (CD8+ T cells): 4.73
- Frequency (TNFα+ IFNγ+ CD8 T cells) (CD8+ T cells): 0.026
- Immunogenic (yes/no) (CD8+ T cells): Yes
- Fold change (CD4+) vs. DMSO (CD4+ T cells): 181.82
- Frequency (TNFα+ IFNγ+ CD4 T cells) (CD4+ T cells): 0.17

Sequence: QLKKMVSKVRLRRARLPGRAHRSLPRPVESVPAQPSKLPRRAGSPGAVLSDLLRTPPRGACRLVRESPYGSWEGGGRRQSTKAWSGGYLTPAAHPPSSLPLSLELSVGQCSFSFVFINTNKGSYLVVDLRQSSTPVPI [AS11]
- Fold change (CD8+) vs. DMSO (CD8+ T cells): 4
- Frequency (TNFα+ IFNγ+ CD8 T cells) (CD8+ T cells): 0.033
- Immunogenic (yes/no) (CD8+ T cells): Yes
- Fold change (CD4+) vs. DMSO (CD4+ T cells): 69.02
- Frequency (TNFα+ IFNγ+ CD4 T cells) (CD4+ T cells): 0.45

Sequence: GEKILFIRVKFYFSLILFLWEDSEFELGEI [AS9, alternative splicing, GAS2]
- Fold change (CD8+) vs. DMSO (CD8+ T cells): 358.4
- Frequency (TNFα+ IFNγ+ CD8 T cells) (CD8+ T cells): 1.99
- Immunogenic (yes/no) (CD8+ T cells): Yes
- Fold change (CD4+) vs. DMSO (CD4+ T cells): 20.874
- Frequency (TNFα+ IFNγ+ CD4 T cells) (CD4+ T cells): 0.099
